Assay [1] deals with T1, ATP-dependent DNA helicase DinG (Escherichia coli (strain K12), UniProt P27296).
T1 sequence (P27296 whole entry): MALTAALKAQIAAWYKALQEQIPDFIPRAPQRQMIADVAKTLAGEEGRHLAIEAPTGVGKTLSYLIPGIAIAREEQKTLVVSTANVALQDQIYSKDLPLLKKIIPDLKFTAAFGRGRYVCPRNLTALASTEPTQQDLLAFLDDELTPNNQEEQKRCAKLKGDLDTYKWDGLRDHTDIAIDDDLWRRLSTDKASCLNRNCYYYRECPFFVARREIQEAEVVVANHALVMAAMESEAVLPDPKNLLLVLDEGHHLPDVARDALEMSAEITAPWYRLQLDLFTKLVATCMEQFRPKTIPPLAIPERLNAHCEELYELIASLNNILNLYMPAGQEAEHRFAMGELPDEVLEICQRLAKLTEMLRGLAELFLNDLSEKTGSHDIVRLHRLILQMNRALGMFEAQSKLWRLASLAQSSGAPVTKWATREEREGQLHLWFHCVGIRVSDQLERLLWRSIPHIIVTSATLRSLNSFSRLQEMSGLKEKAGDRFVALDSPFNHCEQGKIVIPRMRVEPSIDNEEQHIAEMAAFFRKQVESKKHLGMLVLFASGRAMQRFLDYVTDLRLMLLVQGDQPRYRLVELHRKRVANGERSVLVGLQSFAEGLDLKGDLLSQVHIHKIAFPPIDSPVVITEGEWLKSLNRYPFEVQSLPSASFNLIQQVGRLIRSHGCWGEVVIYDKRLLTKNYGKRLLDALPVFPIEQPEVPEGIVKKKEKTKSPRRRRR
Put plainly: Helicase Assays. To be noted: pH 8. The procedure:
(§1) Standard helicase reaction mixtures (20μl) containing 5 fmol of the indicated TP-G4 or OX-1-G2' DNA substrates or forked duplex DNA substrate (0.25 nM DNA substrate concentration), 1mM ATP, and the indicated concentrations of the specified helicase were as previously described for FANCJ [Wu et al., Mol. Cell. Biol., 28:4116-4128] and DDX11 [Wu et al., J. Biol. Chem., 287:1007-1021]. Helicase reactions for XPD and DinG were performed in buffer that contained 20mM Tris-HCl (pH 8.0), 10mM KCl, 1mM dithiothreitol, 5mM MgCl2, and 100 μg/ml BSA. Reactions were performed at 37 °C for 15 min in the presence of 1 mM ATP, the DNA substrates mentioned above, and the indicated helicase protein concentrations. Forthe unimolecular Poly(A) Zic1-G4 DNA substrate, helicase reactions were performed in reaction buffer containing a 20-fold excess of peptide-nucleic acid complementary oligonucleotide [Giri et al., Nucleic Acids Res., 39:7161-7178]. G4 helicase reactions were terminated by th

For assay [2], the target named is T2, Fanconi anemia group J protein (Homo sapiens, UniProt Q9BX63).
T2 sequence (Q9BX63 whole entry): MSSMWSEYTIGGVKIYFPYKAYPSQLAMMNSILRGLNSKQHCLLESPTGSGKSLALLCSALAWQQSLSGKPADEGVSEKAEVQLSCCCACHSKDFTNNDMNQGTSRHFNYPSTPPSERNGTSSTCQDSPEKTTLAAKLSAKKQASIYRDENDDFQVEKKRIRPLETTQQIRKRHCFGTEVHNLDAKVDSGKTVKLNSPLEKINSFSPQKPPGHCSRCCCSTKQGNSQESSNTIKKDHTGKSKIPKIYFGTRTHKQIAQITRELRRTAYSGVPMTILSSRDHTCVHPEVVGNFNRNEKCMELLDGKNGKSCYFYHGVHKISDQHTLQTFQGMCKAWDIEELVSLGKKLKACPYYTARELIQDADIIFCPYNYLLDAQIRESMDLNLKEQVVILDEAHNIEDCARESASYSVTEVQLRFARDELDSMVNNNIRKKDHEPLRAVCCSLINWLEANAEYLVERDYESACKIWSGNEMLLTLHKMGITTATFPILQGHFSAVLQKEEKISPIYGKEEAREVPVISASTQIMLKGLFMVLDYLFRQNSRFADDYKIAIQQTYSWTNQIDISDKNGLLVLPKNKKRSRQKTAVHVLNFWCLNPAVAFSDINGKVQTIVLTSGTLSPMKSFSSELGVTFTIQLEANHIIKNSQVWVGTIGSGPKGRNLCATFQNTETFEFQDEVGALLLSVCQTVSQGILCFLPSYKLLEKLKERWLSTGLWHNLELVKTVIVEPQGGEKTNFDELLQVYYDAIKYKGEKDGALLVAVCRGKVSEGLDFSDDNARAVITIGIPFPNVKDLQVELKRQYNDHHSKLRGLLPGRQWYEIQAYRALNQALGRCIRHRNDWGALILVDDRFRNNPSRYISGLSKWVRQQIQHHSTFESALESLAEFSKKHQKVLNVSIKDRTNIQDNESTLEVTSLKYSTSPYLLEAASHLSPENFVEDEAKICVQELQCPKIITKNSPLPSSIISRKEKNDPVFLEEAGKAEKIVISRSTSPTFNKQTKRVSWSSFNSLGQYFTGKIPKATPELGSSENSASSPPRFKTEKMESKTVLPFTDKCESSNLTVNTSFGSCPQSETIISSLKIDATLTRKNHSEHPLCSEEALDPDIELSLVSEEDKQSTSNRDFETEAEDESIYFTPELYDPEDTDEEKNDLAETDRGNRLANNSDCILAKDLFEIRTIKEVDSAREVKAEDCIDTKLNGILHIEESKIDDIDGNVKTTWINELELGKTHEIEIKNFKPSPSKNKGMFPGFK
Put plainly: Helicase Assays. Particulars: pH 8. The procedure: as §1

Where “and” joins values, the source holds several entries; their conditions need not be identical. Equal entries are not always repeated.

In the case of `C[n+]1cc(NC(=O)c2ccc3ccc4ccc(C(=O)Nc5cc6ccccc6[n+](C)c5)nc4c3n2)cc2ccccc21`, in assay [1], the IC50 was 0.05 µM and 0.13 µM.

In the case of `Cc1oc2nc1-c1nc(co1)-c1nc(co1)-c1nc(co1)-c1nc(co1)-c1nc(co1)C1=NC(CS1)c1nc-2c(C)o1` (stereo unspecified) [Telomestatin (TMS)], the IC50 in assay [1] is 0.0015 µM and 0.001 µM; in assay [2], 0.0022 µM and 0.0019 µM and 0.002 µM.

In the case of `C[n+]1cccc2cc(NC(=O)c3ccc4ccc5ccc(C(=O)Nc6ccc7c(ccc[n+]7C)c6)nc5c4n3)ccc21` [Phen-DC6], the IC50 in assay [1] was 0.06 µM and 0.055 µM.

With `C[n+]1ccc(-c2c3nc(c(-c4cc[n+](C)cc4)c4ccc([nH]4)c(-c4cc[n+](C)cc4)c4nc(c(-c5cc[n+](C)cc5)c5ccc2[nH]5)C=C4)C=C3)cc1`, the IC50 in assay [1] is 1.1 µM and 1.2 µM; in assay [2] it was 2.3 µM and 2.9 µM and 4.9 µM.

As a reminder, the IC50 is the concentration at which inhibition is half-maximal. A higher IC50 goes with a need for much substance.

Source of the values: BindingDB's records for doi:10.1074/jbc.M113.496463 (National Institutes of Health, National Institutes of …, 2013).
